From paper PMC3375360 (Journal of Medicinal Chemistry, 2012)

Columns and labels:
Assay type in all cases: cell-based
[1] = system: T.b. rhodesiense, strain STIB 900 trypomastigotes; test: In vitro growth inhibition of bloodstream form T. b. rhodesiense trypomastigotes; conditions: for activity designation against T. b. rhodesiense: TDR criteria
[2] = system: bloodstream form T. b. brucei parasites, engineered to overexpress type I nitroreductase; test: microbe, parasite or virus in culture; conditions: Trypanosoma brucei, read-out: TbNTR −tet (IC50)
[3] = system: L. donovani axenic, strain MHOM-ET-67/L82 amastigotes; test: In vitro growth inhibition of axenically cultured L. donovani amastigotes; conditions: for activity designation against L. donovani: TDR criteria
[4] = system: T. cruzi, strain Tulahuen C4 amastigotes; test: In vitro growth inhibition of T. cruzi amastigotes in infected L6 myoblasts
[5] = system: L6 cells (rat skeletal myoblasts); test: Cytotoxicity in L6 cells; conditions: read-out: L6 IC50 (cytotoxicity)

Compound	activity designation against T. b. rhodesiense [1]	also measured
O=[N+]([O-])c1nccn1CCCNS(=O)(=O)c1ccc(C(F)(F)F)cc1 [Compound 21, N-[3-(2-Nitro-1H-imidazol-1-yl)propyl]-4-(trifluoromethyl)benzene-1-sulfonamide]	inactive	
O=C(NCCCn1cnc([N+](=O)[O-])n1)c1cnc2ccccc2n1 [Compound 12, N-[3-(3-Nitro-1H-1,2,4-triazol-1-yl)propyl]quinoxaline-2-carboxamide]	complete inactivity	
O=C(NCCCn1ccnc1[N+](=O)[O-])c1ccc(OC(F)(F)F)cc1 [Compound 2, N-[3-(2-Nitro-1H-imidazol-1-yl)propyl]-4-(trifluoromethoxy)benzamide]	inactive	
O=C(NCCCn1cnc([N+](=O)[O-])n1)c1ccc(C(F)(F)F)nc1 [Compound 9, N-[3-(3-Nitro-1H-1,2,4-triazol-1-yl)propyl]-6-(trifluoromethyl)pyridine-3-carboxamide]	moderate activity	
CC1CS(=O)(=O)CCN1/N=C/c1ccc([N+](=O)[O-])o1 (stereo not drawn) [Nfx, 4-(5-nitrofurfurylidenamino)-3-methylthio-morpholine-1,1-dioxide]		IC50 [2]: 1710 ± 60 nM
Cc1ccc(S(=O)(=O)NCCCn2cnc([N+](=O)[O-])n2)cc1 [Compound 28, 4-Methyl-N-[3-(3-nitro-1H-1,2,4-triazol-1-yl)propyl]benzene-1-sulfonamide]		SI (L.don. ax.) ([3]; ratio IC50 in L6 cells/IC50 in L. donovani): >8.1
O=C(NCCCn1ccnc1[N+](=O)[O-])c1ccc(C(F)(F)F)cc1 [Compound 1]	inactive	
O=[N+]([O-])c1ncn(CCNS(=O)(=O)Cc2ccccc2)n1 [Compound 30, N-[2-(3-Nitro-1H-1,2,4-triazol-1-yl)ethyl]-1-phenylmethanesulfonamide]		activity designation against T. cruzi ([4]; TDR criteria): moderately active (IC50 = 4.0–60 μM)
O=C(Cn1cnc([N+](=O)[O-])n1)Nc1nc2cc(Cl)ccc2o1 [Compound 19, N-(5-chloro-1,3-benzoxazol-2-yl)-2-(3-nitro-1H-1,2,4-triazol-1-yl)acetamide]	inactive	
Podophylotoxin [Podoph.]		IC50 [5]: 22 nM
O=[N+]([O-])c1ncn(CCNS(=O)(=O)c2cc(C(F)(F)F)cc(C(F)(F)F)c2)n1 [Compound 26, N-[2-(3-nitro-1H-1,2,4-triazol-1-yl)ethyl]-3,5-bis(trifluoromethyl)benzene-1-sulfonamide]	inactivity	
O=C(NCCCn1cnc([N+](=O)[O-])n1)c1cc(C(F)(F)F)cc(C(F)(F)F)c1 [Compound 8, N-[3-(3-Nitro-1H-1,2,4-triazol-1-yl)propyl]-3,5-bis(trifluoromethyl)benzamide]	inactivity	
O=C(NCCCn1cnc([N+](=O)[O-])n1)c1ccc(-c2ccccc2)cc1 [Compound 13, N-[3-(3-Nitro-1H-1,2,4-triazol-1-yl)propyl]-4-phenylbenzamide]	moderately active (IC50 = 0.5–6.0 μM)	
O=C(Cn1cnc([N+](=O)[O-])n1)Nc1nc2ccc(Cl)cc2s1 [Compound 18, N-(6-chloro-1,3-benzothiazol-2-yl)-2-(3-nitro-1H-1,2,4-triazol-1-yl)acetamide]	inactive	activity designation against L. donovani [3]: moderately active (IC50 = 1.0–6.0 μM)
O=[N+]([O-])c1ncn(CCCNS(=O)(=O)c2cc(C(F)(F)F)ccc2C(F)(F)F)n1 [Compound 25, N-[3-(3-Nitro-1H-1,2,4-triazol-1-yl)propyl]-2,5-bis(trifluoromethyl)benzene-1-sulfonamide]	inactivity	
O=C(NCCCCn1cnc([N+](=O)[O-])n1)c1ccc(OC(F)(F)F)cc1 [Compound 6, N-[4-(3-Nitro-1H-1,2,4-triazol-1-yl)butyl]-4-(trifluoromethoxy)benzamide]		SI (T. cruzi) ([4]; ratio IC50 in L6 cells/IC50 in T. cruzi): >2381
O=[N+]([O-])c1ncn(CCCNS(=O)(=O)c2cc(C(F)(F)F)cc(C(F)(F)F)c2)n1 [Compound 27, N-[3-(3-nitro-1H-1,2,4-triazol-1-yl)propyl]-3,5-bis(trifluoromethyl)benzene-1-sulfonamide]	inactivity	
Cc1ccc2nc(NC(=O)Cn3cnc([N+](=O)[O-])n3)sc2c1 [Compound 17, N-(6-methyl-1,3-benzothiazol-2-yl)-2-(3-nitro-1H-1,2,4-triazol-1-yl)acetamide]	inactive	activity designation against L. donovani [3]: moderately active (IC50 = 1.0–6.0 μM)
Nc1nc(N)nc(Nc2ccc([As]3SCC(CO)S3)cc2)n1 (stereo not drawn) [Melars., Melarsoprol, reference compound]		IC50 ([1]; Trypanosoma brucei, RHODESIENSE|STIB900, read-out: T.b.rhod. IC50): 12 nM
